Data from patent publication US20190064177A1, “INCORPORATING COMPETITIVE BINDING INFORMATION INTO MOLECULAR ARRAY ANALYSIS TO GENERATE FUNCTION NETWORKS OF INTERACTIONS” (ARIZONA BOARD OF REGENTS ON BEHALF OF ARIZONA STATE …, priority 2017, published 2019).

Test system: diaphorase
Assay: fluorescently labeled diaphorase binding to peptide array with or without excess FAD
Details: for 1 microM FAD (array fluorescence of bound diaphorase) / 1 micro no FAD (array fluorescence of bound diaphorase): 1 micromolar labeled diaphorase; for 1 microM FAD (array fluorescence of bound diaphorase) / 10 microM FAD (array fluorescence of bound diaphorase): excess FAD present; for 1 microM FAD (array fluorescence of bound diaphorase) / 1 micro no FAD (array fluorescence of bound diaphorase) / 10 microM FAD (array fluorescence of bound diaphorase) / 10 microM no FAD (array fluorescence of bound diaphorase): 65535 is detector saturation; for 10 microM FAD (array fluorescence of bound diaphorase) / 10 microM no FAD (array fluorescence of bound diaphorase): 10 micromolar labeled diaphorase; for 1 microM noFAD/FAD / 10 microM noFAD/FAD: ratio of binding without FAD to binding with FAD; for 1 microM noFAD/FAD / Meas. ratio: 1 micromolar diaphorase; for 10 microM noFAD/FAD: 10 micromolar diaphorase; for Meas. ratio: ratio without/with FAD calculated from measured binding values
Method: Measurements were performed in which diaphorase was bound to an array of about 126,000 unique sequences. The sequences were chosen simply to cover sequence space. 16 of the natural 20 amino acids were used to make up these sequences with C, I, M and T omitted. The diaphorase was fluorescently labeled and each peptide sequence feature was scanned and fluorescence recorded on the array. Diaphorase bound tightly to some peptides and not at all to others. Two different concentrations of diaphorase were used, 1 and 10 micromolar, and the diaphorase was either bound in the presence of excess FAD or not. […] Indeed the Pearson correlation coefficient between w/ and w/o FAD was >0.97, which actually speaks to the reproducibility of this dataset. However, there are some differences as shown on the scatter plot of FIG. 1. When one takes a ratio of the binding without FAD and the binding with FAD, one finds the following top 30 ratios (Table 1): Note that all these sequences end with a GSG linker sequence. Because there are two concentrations, one can easily check for consistency. Note that 65535 is detector saturation, so one has to ignore those values. For this reason, the lower concentration is used most of the time. […] It appears that this was some kind of error and was ignored in subsequent analysis. A similar conclusion can be made with the 7th highest value. Looking at the sequences, RW or at least R or K followed by a nonpolar or aromatic amino acid at the N-terminus. This is interesting as FAD is negatively charged, though the adenine in FAD looks a bit like tryptophan (see FIG. 2).

Sequence	1 microM FAD (array fluorescence of bound diaphorase)	1 micro no FAD (array fluorescence of bound diaphorase)	10 microM FAD (array fluorescence of bound diaphorase)	10 microM no FAD (array fluorescence of bound diaphorase)	1 microM noFAD/FAD	10 microM noFAD/FAD	Meas. ratio
LKQLFLEGGSG [array peptide with C-terminal GSG linker]	2474.5	1559.25	23548.25	8696.5	0.6301	0.3693	0.63
YRFPNAQSPGGSG [array peptide with C-terminal GSG linker]	2373	6240	37721.5	65535	2.63	1.737	2.63
WRVQAWRPNKVEG							2.43
RWKYQKFNGGSG [array peptide with C-terminal GSG linker]	3860.75	10165	46173.5	61301.5	2.633	1.328	2.63
WRLNPLQFGGSG [array peptide with C-terminal GSG linker]							2.54
GYHLFEKLYFDGS							0.70
FYNFGYQDLEDGS							0.75
YNRNAKSSGGSG [array peptide with C-terminal GSG linker]	1546	4014	18565.25	41333.25	2.596	2.226	2.60
RNWYGGSG [array peptide with C-terminal GSG linker]	2940.75	7830.5	48587	65535	2.663	1.349	2.66
RSHPKHNVGSG [array peptide with C-terminal GSG linker]	3876	1953.667	12238.917	17018.417	0.504	1.391	0.50
RLQYLFKSDGSG [array peptide with C-terminal GSG linker]	1964.75	5778.25	30591	64328.25	2.941	2.103	2.94
NHLLEGAFVSEGS							0.77
PVDFGYQLKVSGS							0.66
EAVQKLLFSGSG [array peptide with C-terminal GSG linker]	2420	1457.5	17702.75	5389.5	0.6023	0.3044	0.60
YRFQSGLPAKDGSG [array peptide with C-terminal GSG linker]	1489.75	4041.25	20226.25	50316.25	2.713	2.488	2.71
RWYKNGGSG [array peptide with C-terminal GSG linker]	3658	10176.5	46265.5	64775	2.782	1.4	2.78

Sequence	1 microM FAD (array fluorescence of bound diaphorase)	1 micro no FAD (array fluorescence of bound diaphorase)	10 microM FAD (array fluorescence of bound diaphorase)	10 microM no FAD (array fluorescence of bound diaphorase)	1 microM noFAD/FAD	10 microM noFAD/FAD	Meas. ratio
NRKFYWNAGGSG [array peptide with C-terminal GSG linker]							2.10
WRGFKFADGGSG [array peptide with C-terminal GSG linker]	2156.5	5654.5	31464.5	58885	2.622	1.871	2.62
KEAPGPRFGGSG [array peptide with C-terminal GSG linker]	8281.5	1071.25	5467.5	5614.5	0.1294	1.027	0.13
YRLNLKHPVGGSG [array peptide with C-terminal GSG linker]	4146.5	12652.75	56689	65535	3.051	1.156	3.05
FLQFLGGSG [array peptide with C-terminal GSG linker]							0.87
AQVAVDGFYVDGSG [array peptide with C-terminal GSG linker]	3089	2012.5	22739.5	12627	0.6515	0.5553	0.65
SVLEGYQAVFGGSG [array peptide with C-terminal GSG linker]	2664.5	1341.5	21517.25	6065.25	0.5035	0.2819	0.50
RQRYPKVSGGSG [array peptide with C-terminal GSG linker]							1.71
LAKQNRVEDGSS (LAKQNRVEDGSG) [array peptide with C-terminal GSG linker]	1435	770.5	3699	2948.5	0.5369	0.7971	0.54
QLLQLLFGGSG [array peptide with C-terminal GSG linker]	6311.5	3228.25	53382.25	19529.5	0.5115	0.3658	0.51
YRNAAWFSGGSG [array peptide with C-terminal GSG linker]	2926	8372.25	43282	65535	2.861	1.514	2.86
YQRHQNVFAKSGG							2.56
RYAYFQHLGGSG [array peptide with C-terminal GSG linker]	4971.5	13584.75	64053.5	65535	2.733	1.023	2.73
VVQALFDGSG [array peptide with C-terminal GSG linker]	2304.25	1467.5	21180.25	9478.25	0.6369	0.4475	0.64
WLDLGVFPYQHLGSG [array peptide with C-terminal GSG linker]	3433.25	2202	33610.5	25700.5	0.6414	0.7647	0.64
